According to US12280148B2, “Composition for promoting extracellular vesicle production containing peptide derived from noxa protein and method for producing extracellular vesicles by using same” (Exocalibre Therapeutics Co., Ltd., priority 2020, dated 2025):

What was measured:
Format in all cases: cell-based, human
HeLa cell line [1] = experiment: Production of extracellular vesicles, observed by optical microscope (bright field); settings: solution of Example 1 (250 mM sucrose), peptide final concentration 20 μM, after 10 minutes
Protocol: After the HeLa cell line was cultured in a 6-well plate, the culture was removed, and then the HeLa cell line was treated with the solution in Example 1.
The control group was not treated with any peptide, and the experiment group was treated with eMTDΔ4 peptide of SEQ ID NO: 2 (final concentration: 20 μM). After 10 minutes, the generation of extracellular vesicles was observed by an optical microscope (bright field), and the observation results are shown in FIG. 1.
Extracellular vesicle production was carried out by the experimental method of Experimental Example 2-1 using the R(8):MTD peptide of SEQ ID NO: 4 and the solutions of Example 1 and Comparative Examples 1 to 18, and the results are shown in FIGS. 2A to 2S.
Extracellular vesicle production was carried out by the experimental method of Example 2-1 using the R(8):MTD peptide of SEQ ID NO: 4 and the solutions of Examples 1 to 3 on Table 3, and the results are shown in FIGS. 3A to 3C.

HeLa cell line [2] = experiment: Extracellular vesicle morphology, EGFP-HSP90 transfected cells, confocal microscope; settings: HeLa transfected with pEGFP-HSP90; solution of Example 1; 20 μM; after 10 minutes
Protocol: In order to transfect the HSP90 protein, an exosome indicator, into the HeLa cell line, the HeLa cell line was cultured overnight in a 6-well plate, and then treated with a plasmid into which Effectene and pEGFP-HSP90 were cloned, and after 4 hours, the culture was replaced.
The next day, the culture was removed from the HeLa cell line, and the solution of Example 1 was added. A control group was not treated with any peptide, and an experiment group was treated with the eMTDΔ4 peptide of SEQ ID NO: 2 (final concentration: 20 μM). The HSP90 protein was excited using an argon laser of 488 nm. After 10 minutes, the control group and the experiment group were observed using a confocal microscope (Leica TCS SP5 Microsystems), and the results are shown in FIG. 4.

HeLa cell line [3] = experiment: Extracellular vesicle production, mEmerald-CD9 / mCherry-CD81 transfected cells, confocal imaging every 2 seconds; settings: solution of Example 1, 20 μM
Protocol: The HeLa cell line was cultured in a 12-well plate overnight, and in order to identify the CD9 protein, an extracellular vesicle indicator, the HeLa cell line was treated with a plasmid into which Effectene and mEmerald-CD9 were cloned, and after 4 hours, the culture was replaced.
The next day, the culture was removed from the HeLa cell line, and the HeLa cell line was treated with the solution of Example 1. After each HeLa cell line was treated with the eMTDΔ4 peptide (final concentration: 20 μM), a laser having a wavelength of 488 nm was used to excite mEmerald-CD9.
In order to identify the CD81 protein, an extracellular vesicle indicator, the same procedure as in the method for observing the CD9 protein was performed except that the HeLa cells were treated with a plasmid into which mCherry-CD81 instead of mEmerald-CD9 was cloned and mCherry-CD81 was excited using a laser having a wavelength of 561 nm, and the results are shown in FIG. 5B.

293-HEK cell line [4] = experiment: Extracellular vesicle output quantified by Bradford solution
Protocol: The 293-HEK cell line was cultured in a 6-well plate at a rate of 2×10^5 cells/mL, and the next day, the cell line was treated with the solution of Example 1 and a peptide of any one of SEQ ID NOs: 1 to 21. […], the solution was removed, followed by centrifugation at an RCF of 12000, and the extracellular vesicles were quantified using the supernatant by Bradford solution.

293-HEK cell line [5] = experiment: Extracellular vesicle size and quantity by Nanoparticle Tracking Analysis (NTA); settings: 50-fold diluted, solution of Example 1, peptide 20 μm, after 20 minutes
Protocol: After the 293-HEK cell line was cultured to 90% confluency (about 2×10^7 cells) in a 10-cm culture dish, the culture was removed, and the cells were treated with the eMTDΔ4 peptide (final concentration: 20 μm), which has been dissolved in 5 ml of the solution of Example 1. After 20 minutes, the solution was removed, followed by centrifugation at an RCF of 12000, and then the size and quantity of extracellular vesicles were measured using a Nanoparticle Tracking Analysis (NTA) system (Nanosight LM10, Malvern Instruments).

293-HEK cell line [6] = experiment: Loading of recombinant TRAIL protein in extracellular vesicles, SDS-acrylamide gel; settings: Recombinant TRAIL + (2 μg/ml), Peptide + (25 μM), solution of Example 1
Protocol: After the 293-HEK cell line was cultured to 90% confluency in a 6-well plate, the culture was removed, and the cell line was treated with the eMTDΔ4 peptide (final concentration: 25 μM) and the recombinant TRAIL, which have been dissolved to concentrations of 25 μM and 2 μg/ml in the solution of Example 1, respectively. The supernatant was collected, and PEG (final concentration: 8%) was added, followed by centrifugation at an RCF of 12000 for 10 minutes, thereby settling extracellular vesicles, and the extracellular vesicles were loaded on the SDS-acrylamide gel to check the TRAIL protein.

293-HEK cell line [7] = experiment: Loading of plasmid DNA in extracellular vesicles, agarose gel electrophoresis; settings: peptide 25 μM, PUC19 3 μg/ml, EGFP-C1 6 μg/ml, solution of Example 1
Protocol: After the 293-HEK cell line was cultured to 90% confluency in a 6-well plate, the culture was removed, and the cell line was treated with the eMTDΔ4 peptide (final concentration: 25 μM) and plasmid DNA (PUC19 3 μg/ml, EGFP-C1 6 μg/ml), which have been dissolved in the solution of Example 1.
1.15 ml of the supernatant was collected and 0.35 ml of Qiagen buffer P3 was added, thereby making a total volume of 1.5 ml, of which 0.75 ml was then passed through the DNA miniprep column (Qiagen), and the passed solution was purified with phenol and precipitated with ethanol.
After 30 μl of DNA bound to the column and 30 μl of DNA precipitated with ethanol were dissolved in water, 10 μl of DNA bound to the column and 10 μl of DNA precipitated with ethanol were subjected to agarose gel electrophoresis, and then stained with EtBr.

HeLa cell line [8] = experiment: Loading of doxorubicin in extracellular vesicles, confocal microscope; settings: HeLa expressing EGFP-HSP90; peptide 25 μM; doxorubicin 100 μM; solution of Example 1; after 10 minutes
Protocol: Doxorubicin, which is a drug passing through cell membranes well, is used to treat cancers, such as breast cancer, bladder cancer, Kaposi's sarcoma, lymphoma, or acute lymphoblastic leukemia. First, the HeLa cell line was cultured in a 12-well plate overnight, then transfected with a plasmid expressing EGFP-HSP90 using effectene, and then the culture was replaced after 4 hours. The next day, the culture was removed from the HeLa cell line to prepare a cell line.
(§1) The control group was treated with only doxorubicin without any peptide, and the experiment group was treated with the eMTDΔ4 peptide (final concentration: 25 μM) and doxorubicin (final concentration: 100 μM), which have been dissolved in the solution of Example 1, and then after 10 minutes, the groups were observed by a confocal microscope.

HeLa cell line [9] = experiment: Loading of propidium iodide (PI) in extracellular vesicles, confocal microscope; settings: HeLa transfected with HSP90; peptide 25 μM; 5 μg/ml PI; solution of Example 1; after 10 minutes
Protocol: Propidium iodide (PI), which is a drug poorly passing through cell membranes, is a fluorescent substance capable of being used to stain cells. First, the HSP90 protein was transfected into the HeLa cell line to prepare a cell line.
as §1, with “PI” for “doxorubicin”, “5 μg/ml PI,” for “doxorubicin (final concentration: 100 μM),”, “been in combination” for “been”

KLNFRQKLLNLISKLF (eMTDdelta4) [eMTDΔ4, Noxa protein-derived peptide, 16aa]
generation of extracellular vesicles (HeLa cell line [1]): small extracellular vesicle particles were formed and settled on the bottom of the plate | cell morphology (HeLa cell line [2]): the cell morphology was damaged | extracellular vesicles containing HSP90 protein (HeLa cell line [2]): extracellular vesicles containing the HSP90 protein were settled on the bottom of the plate | time to release of extracellular vesicles to the extracellular matrix (HeLa cell line [3]): within a few seconds after generation | release of CD9 and CD81 proteins (extracellular vesicle indicators) (HeLa cell line [3]; observed for 10 minutes): CD9 and CD81 proteins were released into the extracellular matrix | Amount of proteins contained in extracellular vesicles (293-HEK cell line [4]; solution of Example 1, peptide 10 μM): 4.93 µg/µL | Amount of proteins contained in extracellular vesicles (293-HEK cell line [4]; solution of Example 1, peptide 20 μM): 6.40 µg/µL | Amount of proteins contained in extracellular vesicles (293-HEK cell line [4]; solution of Example 1, peptide 40 μM): 7.56 µg/µL | Quantity of extracellular vesicles (293-HEK cell line [5]): 7.44e+08 ± 6.51e+07 mL⁻¹ | Protein detected or not (TRAIL in extracellular vesicles) (293-HEK cell line [6]): ◯ | loading of plasmid DNA in extracellular vesicles (293-HEK cell line [7]): can be loaded in the extracellular vesicles | loading of doxorubicin in extracellular vesicles (HeLa cell line [8]): the generated extracellular vesicles contained doxorubicin as well as the HSP90 protein | loading of propidium iodide (PI) in extracellular vesicles (HeLa cell line [9]): the generated extracellular vesicles contained PI as well as the HSP90 protein
